Results reported in ChEMBL document CHEMBL1201862, “PubChem BioAssay data set” (2004).
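Five concentrations, 48 hours, 96-well plates. GI50 marks 50% less growth.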 Activity calls are given as the source filed them. Cut-off read from the data, not from the text of the source: active = GI50 up to about 1.1 µM and inactive = higher.

Tests used:
Experiment in all cases: growth of human tumour cells (NCI), 48 h
HCC 2998 = tested on: HCC 2998
786-0 = tested on: 786-0
NCI-H460 = tested on: NCI-H460
A549 = tested on: A549
K562 = tested on: K562
MDA-MB-435 = tested on: MDA-MB-435
T47D = tested on: T47D
HT-29 = tested on: HT-29
SN12C = tested on: SN12C
MOLT-4 = tested on: MOLT-4
HCT-116 = tested on: HCT-116
BT-549 = tested on: BT-549
PC-3 = tested on: PC-3
CCRF-CEM = tested on: CCRF-CEM
CAKI-1 = tested on: CAKI-1
MDA-MB-231 = tested on: MDA-MB-231
NCI-H522 = tested on: NCI-H522
MCF7 = tested on: MCF7
MDA-N = tested on: MDA-N
SK-MEL-2 = tested on: SK-MEL-2

Measured: GI50

NC1=Nc2ccccc2Sc2nccn21
inactive: HCC 2998 21 µM | 786-0 24.6 µM | NCI-H460 31 µM | A549 41.7 µM | K562 19.6 µM | MDA-MB-435 23.7 µM | T47D 24.7 µM | HT-29 23 µM | SN12C 36.3 µM | MOLT-4 20.2 µM | HCT-116 27.5 µM | BT-549 54.3 µM | PC-3 22.6 µM | CCRF-CEM 27 µM | CAKI-1 27.4 µM | MDA-MB-231 16.1 µM | NCI-H522 19.3 µM | MCF7 44.3 µM | MDA-N 23 µM | SK-MEL-2 32.7 µM

CCOC(=O)C(NNS(=O)(=O)c1ccc(C)cc1)S(=O)(=O)C(F)(F)C(F)(F)C(F)(F)C(F)(F)F (configuration not stated)
inactive: HCC 2998 > 100 µM | 786-0 > 100 µM | NCI-H460 > 100 µM | A549 > 100 µM | K562 > 100 µM | MDA-MB-435 > 100 µM | T47D > 100 µM | HT-29 > 100 µM | SN12C > 100 µM | MOLT-4 81.8 µM | HCT-116 64 µM | BT-549 > 100 µM | PC-3 > 100 µM | CCRF-CEM > 10 µM | CAKI-1 > 100 µM | MDA-MB-231 > 100 µM | NCI-H522 > 100 µM | MCF7 > 100 µM | MDA-N > 100 µM | SK-MEL-2 > 100 µM

CC1(C)OCC2OC3(c4nc(C#N)c(N)o4)OC(C)(C)OC3C2O1 (configuration not stated)
inactive: HCC 2998 > 100 µM | 786-0 > 100 µM | NCI-H460 > 100 µM | A549 > 100 µM | K562 > 53.3 µM | MDA-MB-435 > 100 µM | T47D > 100 µM | HT-29 > 100 µM | SN12C > 100 µM | MOLT-4 > 100 µM | HCT-116 > 100 µM | BT-549 > 100 µM | PC-3 > 100 µM | CCRF-CEM > 100 µM | CAKI-1 > 100 µM | MDA-MB-231 > 100 µM | NCI-H522 > 100 µM | MCF7 > 100 µM | MDA-N > 100 µM | SK-MEL-2 > 100 µM

COc1ccc(C(=O)c2c(-c3ccccc3NC(=O)C(F)(F)F)[nH]c3ccccc23)cc1
inactive: HCC 2998 3.4 µM | NCI-H460 4.26 µM | A549 5.66 µM | K562 5.65 µM | MDA-MB-435 9.89 µM | T47D 1.47 µM | HT-29 3.97 µM | SN12C 14.6 µM | MOLT-4 2.93 µM | HCT-116 12.2 µM | BT-549 14.5 µM | PC-3 5.92 µM | CCRF-CEM 2.46 µM | CAKI-1 6.41 µM | MDA-MB-231 7.28 µM | NCI-H522 7.33 µM | MCF7 1.74 µM | MDA-N 15.3 µM | SK-MEL-2 4.02 µM

CC(=O)NNc1nc(C)c(C(/C=C/c2ccccc2O)=N/NC(=O)c2ccncc2)s1
inactive: HCC 2998 > 100 µM | 786-0 > 100 µM | NCI-H460 > 100 µM | A549 > 100 µM | MDA-MB-435 > 100 µM | T47D > 100 µM | HT-29 > 100 µM | SN12C > 100 µM | MOLT-4 > 100 µM | HCT-116 > 100 µM | BT-549 > 100 µM | PC-3 > 100 µM | CCRF-CEM > 100 µM | CAKI-1 > 100 µM | MDA-MB-231 > 100 µM | NCI-H522 > 100 µM | MCF7 > 100 µM | MDA-N > 100 µM | SK-MEL-2 > 100 µM

CCCC(=O)OCC1(CO)C/C(=C/CC(C(C)C)C(C)C)C(=O)O1 (configuration not stated)
inactive: HCC 2998 > 100 µM | 786-0 > 100 µM | NCI-H460 > 100 µM | A549 > 100 µM | MDA-MB-435 > 100 µM | T47D > 100 µM | HT-29 > 100 µM | SN12C > 100 µM | HCT-116 > 100 µM | BT-549 > 100 µM | PC-3 > 100 µM | CCRF-CEM > 100 µM | CAKI-1 > 100 µM | MDA-MB-231 > 100 µM | NCI-H522 38.7 µM | MCF7 > 100 µM | MDA-N > 100 µM | SK-MEL-2 > 100 µM

Cc1cnc2c(c1)C(=O)N(c1ccc([N+](=O)[O-])cc1)S2(=O)=O
inactive: HCC 2998 > 100 µM | 786-0 > 100 µM | NCI-H460 > 100 µM | A549 95.9 µM | MDA-MB-435 70.5 µM | T47D > 100 µM | HT-29 > 100 µM | SN12C > 100 µM | MOLT-4 > 100 µM | HCT-116 > 100 µM | BT-549 36.1 µM | PC-3 67.3 µM | CCRF-CEM 82.4 µM | CAKI-1 > 100 µM | MDA-MB-231 > 100 µM | NCI-H522 25.1 µM | MCF7 > 100 µM | MDA-N 93.5 µM | SK-MEL-2 5.47 µM

COc1ccc(C(=O)N2CCN(c3ccc4c(c3)OCC(=O)N4)CC2)cc1
inactive: HCC 2998 > 100 µM | 786-0 > 100 µM | NCI-H460 > 100 µM | A549 > 100 µM | MDA-MB-435 > 100 µM | T47D > 100 µM | HT-29 > 100 µM | SN12C > 100 µM | MOLT-4 > 100 µM | HCT-116 > 100 µM | BT-549 > 100 µM | PC-3 > 100 µM | CCRF-CEM > 100 µM | CAKI-1 > 100 µM | MDA-MB-231 > 100 µM | NCI-H522 95.9 µM | MCF7 > 100 µM | MDA-N > 100 µM | SK-MEL-2 > 100 µM

Cc1ccc(C)c(COCCOCn2cc(N3CCOCC3)c(=O)[nH]c2=O)c1
inactive: HCC 2998 > 100 µM | 786-0 > 100 µM | NCI-H460 > 100 µM | A549 > 100 µM | K562 > 100 µM | MDA-MB-435 > 100 µM | T47D > 100 µM | SN12C > 100 µM | MOLT-4 > 100 µM | HCT-116 > 100 µM | BT-549 > 100 µM | PC-3 > 100 µM | CCRF-CEM > 100 µM | CAKI-1 > 100 µM | MDA-MB-231 > 100 µM | NCI-H522 > 100 µM | MCF7 > 100 µM | MDA-N > 100 µM | SK-MEL-2 > 100 µM

COC(=O)C(=O)C(C(=O)C(=O)Nc1nc2ccc(C)cc2s1)c1nc2ccc([N+](=O)[O-])cc2nc1O (configuration not stated)
inactive: HCC 2998 > 100 µM | 786-0 > 100 µM | NCI-H460 > 100 µM | A549 > 100 µM | K562 > 100 µM | MDA-MB-435 > 100 µM | T47D > 100 µM | HT-29 > 100 µM | SN12C > 100 µM | HCT-116 > 100 µM | BT-549 > 100 µM | PC-3 > 100 µM | CCRF-CEM > 100 µM | CAKI-1 > 100 µM | MDA-MB-231 > 100 µM | NCI-H522 > 100 µM | MCF7 > 100 µM | MDA-N > 100 µM | SK-MEL-2 > 100 µM
